# Results taken from patent US10004701B2, “Methods and compositions for treating infection” (UNIVERSITY OF ROCHESTER, priority 2012, dated 2018).
# Counter-ions that a name gives are not always drawn. Like-named read-outs stand apart in the source and are kept apart here.
# What was measured:
# Test in all cases: AK assay 384-well format, Prestwick library screening
# E. faecium = assay type: cell-based, Enterococcus faecium; conditions: Enterococcus faecium, 3 h, 50 μM final drug concentration
# [1] = system: S. aureus strain USA300-0114; assay type: cell-based, Staphylococcus aureus; conditions: Staphylococcus aureus, USA300, 3 h, 50 μM final drug concentration
# K. pneumoniae = assay type: cell-based, Klebsiella pneumoniae; conditions: Klebsiella pneumoniae, 3 h, 50 μM final drug concentration
# [2] = system: A. baumannii strain 98-37-09; assay type: cell-based, Acinetobacter baumannii; conditions: Acinetobacter baumannii, 983709, 3 h, 50 μM final drug concentration
# P. aeruginosa = assay type: cell-based, Pseudomonas aeruginosa; conditions: Pseudomonas aeruginosa, 3 h, 50 μM final drug concentration
# E. cloacae = assay type: cell-based, Enterobacter cloacae; conditions: Enterobacter cloacae, 3 h, 50 μM final drug concentration
# E. coli = assay type: cell-based, Escherichia coli; conditions: Escherichia coli, 3 h, 50 μM final drug concentration
# [3] = planktonic E. faecium, 384-well, cutoff for positive-scoring molecules 3-fold increase, read-out: AK-based Prestwick Library Screening Results: E. faecium (increase in extracellular AK activity)
# [4] = planktonic S. aureus, 384-well, cutoff for positive-scoring molecules 3-fold increase, read-out: AK-based Prestwick Library Screening Results: S. aureus (increase in extracellular AK activity)
# [5] = planktonic K. pneumoniae, 384-well, cutoff for positive-scoring molecules 3-fold increase, read-out: AK-based Prestwick Library Screening Results: K. pneumoniae (increase in extracellular AK activity)
# [6] = planktonic A. baumannii, 384-well, cutoff for positive-scoring molecules 3-fold increase, read-out: AK-based Prestwick Library Screening Results: A. baumannii (increase in extracellular AK activity)
# [7] = planktonic P. aeruginosa, 384-well, cutoff for positive-scoring molecules 3-fold increase, read-out: AK-based Prestwick Library Screening Results: P. aeruginosa (increase in extracellular AK activity)
# [8] = planktonic E. cloacae, 384-well, cutoff for positive-scoring molecules 3-fold increase, read-out: AK-based Prestwick Library Screening Results: E. cloacae (increase in extracellular AK activity)
# [9] = planktonic E. coli, 384-well, […], read-out: AK-based Prestwick Library Screening Results: E. coli (increase in extracellular AK activity)
compound,measurement,setting,value
O=C1CCc2cc(OCCCCc3nnnn3C3CCCCC3)ccc2N1 [Cilostazol],fold induction at 50 µM,"E. faecium; planktonic E. faecium, cutoff for positive-scoring molecules 3-fold increase, read-out: AK-based Prestwick Library Screening Results, E. faecium (increase in extracellular AK activity)",0.9
same,fold induction at 50 µM,"[1]; planktonic S. aureus, cutoff for positive-scoring molecules 3-fold increase, read-out: AK-based Prestwick Library Screening Results, S. aureus (increase in extracellular AK activity)",0.8
same,fold induction at 50 µM,"K. pneumoniae; planktonic K. pneumoniae, cutoff for positive-scoring molecules 3-fold increase, read-out: AK-based Prestwick Library Screening Results, K. pneumoniae (increase in extracellular AK activity)",0.7
same,fold induction at 50 µM,"[2]; planktonic A. baumannii, cutoff for positive-scoring molecules 3-fold increase, read-out: AK-based Prestwick Library Screening Results, A. baumannii (increase in extracellular AK activity)",0.9
same,fold induction at 50 µM,"P. aeruginosa; planktonic P. aeruginosa, cutoff for positive-scoring molecules 3-fold increase, read-out: AK-based Prestwick Library Screening Results, P. aeruginosa (increase in extracellular AK activity)",0.9
same,fold induction at 50 µM,"E. cloacae; planktonic E. cloacae, cutoff for positive-scoring molecules 3-fold increase, read-out: AK-based Prestwick Library Screening Results, E. cloacae (increase in extracellular AK activity)",0.9
same,fold induction at 50 µM,"E. coli; planktonic E. coli, cutoff for positive-scoring molecules 3-fold increase, read-out: AK-based Prestwick Library Screening Results, E. coli (increase in extracellular AK activity)",0.9
CC(=O)O[C@H]1C(=O)[C@@]2(C)[C@H]([C@H](OC(=O)c3ccccc3)[C@]3(O)C[C@H](OC(=O)[C@H](O)[C@@H](NC(=O)c4ccccc4)c4ccccc4)C(C)=C1C3(C)C)[C@]1(OC(C)=O)CO[C@@H]1C[C@@H]2O [Paclitaxel],fold induction at 50 µM,E. faecium; [3],1
same,fold induction at 50 µM,[1]; [4],1
same,fold induction at 50 µM,K. pneumoniae; [5],1
same,fold induction at 50 µM,[2]; [6],1.3
same,fold induction at 50 µM,P. aeruginosa; [7],1
same,fold induction at 50 µM,E. cloacae; [8],1.6
same,fold induction at 50 µM,E. coli; [9],1.1
C=N[C@@H](C(=O)N[C@@H]1C(=O)N2[C@@H]1SC(C)(C)[C@@H]2C(=O)O)c1ccccc1 [Metampicillin sodium salt],fold induction at 50 µM,E. faecium; [3],1.6
same,fold induction at 50 µM,[1]; [4],1.3
same,fold induction at 50 µM,K. pneumoniae; [5],1
same,fold induction at 50 µM,[2]; [6],1.1
same,fold induction at 50 µM,P. aeruginosa; [7],1.3
same,fold induction at 50 µM,E. cloacae; [8],4.3
same,fold induction at 50 µM,"E. coli; planktonic E. coli, 384-well, cutoff for positive-scoring molecules 3-fold increase, read-out: AK-based Prestwick Library Screening Results: E. coli (increase in extracellular AK activity)",16.8
CC1CC(OC(=O)c2ccccc2O)CC(C)(C)C1 (centres unmarked) [Homosalate],fold induction at 50 µM,"E. faecium; planktonic E. faecium, positive cutoff 3-fold increase, read-out: AK-based Prestwick library screening result, E. faecium (fold increase in extracellular AK activity)",1.1
same,fold induction at 50 µM,"[1]; planktonic S. aureus, positive cutoff 3-fold increase, read-out: AK-based Prestwick library screening result, S. aureus (fold increase in extracellular AK activity)",1.2
same,fold induction at 50 µM,"K. pneumoniae; planktonic K. pneumoniae, positive cutoff 3-fold increase, read-out: AK-based Prestwick library screening result, K. pneumoniae (fold increase in extracellular AK activity)",1.1
same,fold induction at 50 µM,"[2]; planktonic A. baumannii, positive cutoff 3-fold increase, read-out: AK-based Prestwick library screening result, A. baumannii (fold increase in extracellular AK activity)",1.8
same,fold induction at 50 µM,"P. aeruginosa; planktonic P. aeruginosa, positive cutoff 3-fold increase, read-out: AK-based Prestwick library screening result, P. aeruginosa (fold increase in extracellular AK activity)",1.1
same,fold induction at 50 µM,"E. cloacae; planktonic E. cloacae, positive cutoff 3-fold increase, read-out: AK-based Prestwick library screening result, E. cloacae (fold increase in extracellular AK activity)",1.5
same,fold induction at 50 µM,"E. coli; planktonic E. coli, positive cutoff 3-fold increase, read-out: AK-based Prestwick library screening result, E. coli (fold increase in extracellular AK activity)",1.3
O=c1oc2ccccc2c(O)c1Cc1c(O)c2ccccc2oc1=O [Dicumarol],fold induction at 50 µM,"E. faecium; cutoff for positive-scoring molecules 3-fold increase, read-out: AK-based Prestwick Library Screening Results, E. faecium (fold increase in extracellular AK activity)",1.3
same,fold induction at 50 µM,"[1]; cutoff for positive-scoring molecules 3-fold increase, read-out: AK-based Prestwick Library Screening Results, S. aureus (fold increase in extracellular AK activity)",1.3
same,fold induction at 50 µM,"K. pneumoniae; cutoff for positive-scoring molecules 3-fold increase, read-out: AK-based Prestwick Library Screening Results, K. pneumoniae (fold increase in extracellular AK activity)",1.1
same,fold induction at 50 µM,"[2]; cutoff for positive-scoring molecules 3-fold increase, read-out: AK-based Prestwick Library Screening Results, A. baumannii (fold increase in extracellular AK activity)",1.3
same,fold induction at 50 µM,"P. aeruginosa; cutoff for positive-scoring molecules 3-fold increase, read-out: AK-based Prestwick Library Screening Results, P. aeruginosa (fold increase in extracellular AK activity)",1.2
same,fold induction at 50 µM,"E. cloacae; cutoff for positive-scoring molecules 3-fold increase, read-out: AK-based Prestwick Library Screening Results, E. cloacae (fold increase in extracellular AK activity)",1.5
same,fold induction at 50 µM,"E. coli; cutoff for positive-scoring molecules 3-fold increase, read-out: AK-based Prestwick Library Screening Results, E. coli (fold increase in extracellular AK activity)",1.1
Nc1ncnc2c1ncn2[C@@H]1O[C@H](COP(=O)(O)O)[C@@H](O)[C@H]1O [Adenosine 5′-monophosphate monohydrate],fold induction at 50 µM,"E. faecium; planktonic E. faecium, […], read-out: AK-based Prestwick Library Screening Results, E. faecium (increase in extracellular AK activity)",0.8
same,fold induction at 50 µM,"[1]; planktonic S. aureus, […], read-out: AK-based Prestwick Library Screening Results, S. aureus (increase in extracellular AK activity)",0.6
same,fold induction at 50 µM,"K. pneumoniae; planktonic K. pneumoniae, […], read-out: AK-based Prestwick Library Screening Results, K. pneumoniae (increase in extracellular AK activity)",0.6
same,fold induction at 50 µM,"[2]; planktonic A. baumannii, […], read-out: AK-based Prestwick Library Screening Results, A. baumannii (increase in extracellular AK activity)",0.7
same,fold induction at 50 µM,"P. aeruginosa; planktonic P. aeruginosa, […], read-out: AK-based Prestwick Library Screening Results, P. aeruginosa (increase in extracellular AK activity)",0.8
same,fold induction at 50 µM,"E. cloacae; planktonic E. cloacae, […], read-out: AK-based Prestwick Library Screening Results, E. cloacae (increase in extracellular AK activity)",1.2
same,fold induction at 50 µM,"E. coli; planktonic E. coli, […], read-out: AK-based Prestwick Library Screening Results, E. coli (increase in extracellular AK activity)",0.8
Cn1c(=O)c2[nH]cnc2n(C)c1=O [Theophylline monohydrate],fold induction at 50 µM,"E. faecium; […], read-out: AK-based Prestwick Library Screening Results, E. faecium (fold increase in extracellular AK activity)",1
same,fold induction at 50 µM,"[1]; […], read-out: AK-based Prestwick Library Screening Results, S. aureus (fold increase in extracellular AK activity)",1.3
same,fold induction at 50 µM,"K. pneumoniae; […], read-out: AK-based Prestwick Library Screening Results, K. pneumoniae (fold increase in extracellular AK activity)",1.1
same,fold induction at 50 µM,"[2]; […], read-out: AK-based Prestwick Library Screening Results, A. baumannii (fold increase in extracellular AK activity)",1.2
same,fold induction at 50 µM,"P. aeruginosa; […], read-out: AK-based Prestwick Library Screening Results, P. aeruginosa (fold increase in extracellular AK activity)",1.2
same,fold induction at 50 µM,"E. cloacae; […], read-out: AK-based Prestwick Library Screening Results, E. cloacae (fold increase in extracellular AK activity)",1.3
same,fold induction at 50 µM,"E. coli; […], read-out: AK-based Prestwick Library Screening Results, E. coli (fold increase in extracellular AK activity)",1.2
COP(=O)(OC)C(O)C(Cl)(Cl)Cl (centres unmarked) [Trichlorfon],fold induction at 50 µM,"E. faecium; planktonic E. faecium, 384-well, […], read-out: AK-based Prestwick Library Screening Results: E. faecium (increase in extracellular AK activity)",0.8
same,fold induction at 50 µM,"[1]; planktonic S. aureus, 384-well, […], read-out: AK-based Prestwick Library Screening Results: S. aureus (increase in extracellular AK activity)",1.1
same,fold induction at 50 µM,"K. pneumoniae; planktonic K. pneumoniae, 384-well, […], read-out: AK-based Prestwick Library Screening Results: K. pneumoniae (increase in extracellular AK activity)",1.1
same,fold induction at 50 µM,"[2]; planktonic A. baumannii, 384-well, […], read-out: AK-based Prestwick Library Screening Results: A. baumannii (increase in extracellular AK activity)",0.9
same,fold induction at 50 µM,"P. aeruginosa; planktonic P. aeruginosa, 384-well, […], read-out: AK-based Prestwick Library Screening Results: P. aeruginosa (increase in extracellular AK activity)",1
same,fold induction at 50 µM,"E. cloacae; planktonic E. cloacae, 384-well, […], read-out: AK-based Prestwick Library Screening Results: E. cloacae (increase in extracellular AK activity)",1.5
same,fold induction at 50 µM,E. coli; [9],1.2
